{"source": "patent US11826373B2", "about": "“Methods for treatment of diseases” (Galera Labs, LLC, priority 2011, dated 2023)", "tested_on": "Sprague-Dawley rats", "assay": "Rat GC4403 28-day IV toxicology", "format": "in vivo", "settings": "28 days", "description": "GC4403 was evaluated in a 28-day GLP study in Sprague-Dawley rats. GC4403 was administered to rats (10/sex/group) as slow-bolus IV injections at dosages of 0, 1, 3 or 6 mg/kg/day for 28 days. The control (0 dose) group received vehicle (26 mM sodium bicarbonate in normal saline). Evaluations for compound-related effects were based on clinical observations, body weight, food consumption, hematology and clinical chemistry parameters, functional observation battery, organ weights and gross and microscopic postmortem examinations. There were no compound-related changes in organ weights or macroscopic or microscopic pathology. Based on the results of this study, the NOTEL for GC4403, when administered to rats for 28 days as an IV infusion was 3 mg/kg/day.", "data": [{"smiles": "[Cl][Mn-5]1234([Cl])[n+]5c6cccc5C[NH+]1[C@@H]1CCCC[C@H]1[NH+]2CC[NH+]3[C@@H]1CCCC[C@H]1[NH+]4C6", "note": "(stereo partly shown) [GC4403]", "values": [{"measurement": "NOTEL", "value": 3, "unit": "mg/kg/day"}]}]}
